One assay concerns A375 cells. In words: Melanoma cell growth inhibition (Alamar Blue). It is filed as cell-based. The procedure:
A375 cells from a melanoma cell line were cultured in DMEM medium (GIBCO) supplemented with 10% fetal bovine serum. A375 cells at 10,000 cells/100µl were added to a 96 well plate which contained 1 µl/well of the test compounds (final concentration of 0.001 ~ 30µM). After incubation for over 46 hours, Alamar Blue reagent was added to the medium (10µl/well). Two hours after the addition, a ratio of fluorescent intensity at an excitation wavelength of 530 nm to that at an emission wavelength of 590 nm was measured to determine the IC50 of the test compounds in the same manner as in the above examples.
(The colour change of resazurin is a common sign of viable cells or microbes.)

The next assay deals with HCT116 cells. In words: Colon cancer cell growth inhibition (Alamar Blue). The conditions noted are these: incubation over 72 hours, result in words. Format: cell-based. The procedure: Test Example 2 Colon cancer cell growth inhibition
HCT116 cells from a colon cancer cell line were cultured in McCoy's 5A medium (GIBCO) supplemented with 10% fetal bovine serum. HCTI 16 cells were inoculated on a 96 well plate (5000 cells/well) followed by overnight incubation. The test compound diluted with the medium was added to the medium in a final concentration of 0.1 to 30µM (final DMSO concentration, 1%). After incubation for over 72 hours, Alamar Blue reagent was added to the medium. Two hours after the addition, a ratio of fluorescent intensity at an excitation wavelength of 530 nm to that at an emission wavelength of 590 nm was measured to determine the IC50.

[1] abbreviates: Homo sapiens, A-375, incubation over 46 hours.

For the compound `Cc1ccc([N+](=O)[O-])cc1S(=O)(=O)n1ccc(-c2c(C)nc3ccc(Br)cn23)n1` [Compound 6, 3-(6-Bromo-2-methylimidazo[1,2-a]pyridin-3-yl)-1H-pyrazol-1-yl 2-methyl-5-nitrophenyl sulfone], the half-maximal inhibitory concentration (IC50) in the assay with A375 cells (setting [1]) was less than 1 µM. Further, in the assay with HCT116 cells, the “cancer cell growth inhibition activity” value is given as “good cancer cell growth inhibition activity”.

As for `Cc1ccc(C#N)cc1S(=O)(=O)N(C)N=Cc1cnc2ccc(F)cn12` [Compound 95, 5-cyano-2'-[(6-fluoroimidazo[1,2-a]pyridin-3-yl)methylidene]-1',2-dimethylbenzenesulfonohydrazide], the half-maximal inhibitory concentration (IC50) with A375 cells (setting [1]) was less than 1 µM. Same read-out and setting: the result for `CN(N=Cc1cnc2ccc(Cl)cn12)S(=O)(=O)c1cc([N+](=O)[O-])ccc1OCC(F)(F)F` [Compound 60, 2'-[(6-chloroimidazo[1,2-a]pyridin-3-yl)methylidene]-1'-methyl-5-nitro-2-(2,2,2-trifluoroethoxy)benzenesulfonohydrazide] reads less than 1 µM; that for `Cc1ccc([N+](=O)[O-])cc1S(=O)(=O)N(C)N=Cc1cnc2ccc(Br)cn12` [Compound 43, 2'-[(6-bromoimidazo[1,2-a]pyridin-3-yl)methylidene]-1',2-dimethyl-5-nitrobenzenesulfonohydrazide], less than 1 µM; that for `CCc1ccc([N+](=O)[O-])cc1S(=O)(=O)N(C)N=Cc1cnc2ccc(Br)cn12` [Compound 53, 2'-[(6-bromoimidazo[1,2-a]pyridin-3-yl)methylidene]-2-ethyl-1'-methyl-5-nitrobenzenesulfonohydrazide], less than 1 µM. Same read-out and setting: the result for `Cc1ccc(C#N)cc1S(=O)(=O)N(C)N=Cc1cnc2ccc(C#N)cn12` [Compound 96, 5-cyano-2'-[(6-cyanoimidazo[1,2-a]pyridin-3-yl)methylidene]-1',2-dimethylbenzenesulfonohydrazide] reads less than 1 µM; that for `Cc1ccc([N+](=O)[O-])cc1S(=O)(=O)N(CCN1CCOCC1)N=Cc1cnc2ccc(Br)cn12` [Compound 77, 6-bromo-3-{[(2-methyl-5-nitrobenzenesulfonyl)(2-morpholinoethyl)hydrazono]methyl}imidazo[1,2-a]pyridine], less than 1 µM; that for `Cc1ccc([N+](=O)[O-])cc1S(=O)(=O)c1nc(-c2cnc3ccc(Cl)cn23)cs1` [Compound 65, 6-chloro-3-[2-(2-methyl-5-nitrobenzenesulfonyl)thiazol-4-yl]imidazo[1,2-a]pyridine], less than 1 µM. The compound `Cc1ccc2ncc(C=NN(C)S(=O)(=O)c3cc([N+](=O)[O-])ccc3C)n2c1` [Compound 99, 1'2-dimethyl-2'-[(6-methylimidazo[1,2-a]pyridin-3-yl)methylidene]-5-nitrobenzenesulfonohydrazide] gave an IC50 with A375 cells (incubation over 46 hours) of less than 1 µM.

The compound `CN(N=Cc1cnc2ccc(Cl)cn12)S(=O)(=O)c1cc([N+](=O)[O-])ccc1-n1ccnc1` [Compound 112, 2'-[(6-chloroimidazo[1,2-a]pyridin-3-yl)methylidene]-2-(1H-imidazol-1-yl)-1'-methyl-5-nitrobenzenesulfonohydrazide] registered a concentration for half-maximal inhibition (IC50) in the assay with A375 cells (setting [1]) of less than 1 µM. On the same count and under the same terms, the result for `CN(C)c1ccc([N+](=O)[O-])cc1S(=O)(=O)N(C)N=Cc1cnc2ccc(Cl)cn12` [Compound 113, 2'-[(6-chloroimidazo[1,2-a]pyridin-3-yl)methylidene]-2-dimethylamino-1'-methyl-5-nitrobenzenesulfonohydrazide] reads less than 1 µM; that for `Cc1ccc([N+](=O)[O-])cc1S(=O)(=O)n1ccc(-c2cnc3ccc(Br)cn23)n1` [Compound 30, 3-(6-bromoimidazo[1,2-a]pyridin-3-yl)-1H-pyrazol-1-yl 2-methyl-5-nitrophenyl sulfone], less than 1 µM. On the same count and under the same terms, the figure for `Cc1ccc([N+](=O)[O-])cc1S(=O)(=O)N(C)N=Cc1cnc2ccc(C#N)cn12` [Compound 93, 3-{[(methyl)(2-methyl-5-nitrobenzenesulfonyl)hydrazono]methyl}imidazo[1,2-a]pyridine-6-carbonitrile] is less than 1 µM. In the assay with A375 cells (setting [1]), `CN(N=Cc1cnc2ccc(Cl)cn12)S(=O)(=O)c1cc([N+](=O)[O-])ccc1N` [Compound 59, 2-amino-2'-[(6-chloroimidazo[1,2-a]pyridin-3-yl)methylidene]-1'-methyl-5-nitrobenzenesulfonohydrazide] showed a 50% inhibitory concentration (IC50) of less than 1 µM. Same read-out and setting: the figure for `Cc1ccc([N+](=O)[O-])cc1S(=O)(=O)N(C)N=Cc1cnc2ccc(Cl)cn12` [Compound 88, 6-chloro-3-{[(methyl)(2-methyl-5-nitrobenzenesulfonyl)hydrazono]methyl}imidazo[1,2-a]pyridine] is less than 1 µM. As to `Cc1ccc(C#N)cc1S(=O)(=O)N(C)N=Cc1cnc2ccc(Br)cn12` [Compound 54, 3-({2-[(6-bromoimidazo[1,2-a]pyridin-3-yl)methylidene]-1-methylhydrazino}sulfonyl)-4-methylbenzonitrile], the concentration for half-maximal inhibition (IC50) in the assay with A375 cells (setting [1]) is less than 1 µM. On the same count and under the same terms, the result for `Cc1ccc([N+](=O)[O-])cc1S(=O)(=O)N(C)N=Cc1cnc2ccc(F)cn12` [Compound 57, 2'-[(6-fluoroimidazo[1,2-a]pyridin-3-yl)methylidene]-1',2-dimethyl-5-nitrobenzenesulfonohydrazide] reads less than 1 µM.

As a reminder, the IC50 is the concentration that gives 50% inhibition. Lower therefore signals greater potency.

(Values after patent EP1277754B1, “IMIDAZOPYRIDINE DERIVATIVES” (YAMANOUCHI PHARMACEUTICAL CO. LTD., priority 2000, dated 2001).)
